Measured values from patent publication US6525001B1, “Substituted pyrimidine and pyridine herbicides” (Mid-American Commercialization Corporation, priority 1997, dated 2003).

Experiments:
Type in all cases: in vivo
[1] = tested on: barnyardgrass (Echinochloa crus-galli); experiment: Test C
[2] = tested on: cotton (Gossypium hirsutum); experiment: Test C
[3] = tested on: ladysthumb smartweed (Polygonum persicaria); experiment: Test C
[4] = tested on: Spanishneedles (Bidens bipinnata); experiment: Test E pre-/postemergence/post directed
Method in brief: (§1)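 Injury was scored visually on a 0 to 100 scale (100 = complete control) 13 to 21 days after treatment of greenhouse-grown plants. Test chemicals, in a surfactant-containing non-phytotoxic solvent, were sprayed onto soil within a day of planting, onto plants at the two to four leaf stage, or directed at the base of the plants.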

[5] = tested on: bermudagrass (Cynodon dactylon); experiment: Test E pre-/postemergence/post directed
Method in brief: as §1

[6] = tested on: common ragweed (Ambrosia elatior); experiment: Test E pre-/postemergence/post directed
Method in brief: as §1

[7] = tested on: itchgrass (Rottboellia exaltata); experiment: Test E pre-/postemergence/post directed
Method in brief: as §1

[8] = tested on: johnson grass (Sorghum halepense); experiment: Test E pre-/postemergence/post directed
Method in brief: as §1

[9] = tested on: large crabgrass (Digitaria sanguinalis); experiment: Test E pre-/postemergence/post directed
Method in brief: as §1

[10] = tested on: pitted morningglory (Ipomoea lacunosa); experiment: Test E pre-/postemergence/post directed
Method in brief: as §1

[11] = tested on: sandbur (Cenchrus echinatus); experiment: Test E pre-/postemergence/post directed; conditions: PREEMERGENCE
Method in brief: as §1

[12] = tested on: bermudagrass (Cynodon dactylon); experiment: Test E pre-/postemergence/post directed; parameters: key: 0 is no effect; 100 is complete control; conditions: PREEMERGENCE
Method in brief: as §1

[13] = tested on: common groundsel (Senecio vulgaris); experiment: Test E pre-/postemergence/post directed; parameters: key: 0 is no effect; 100 is complete control; conditions: PREEMERGENCE
Method in brief: as §1

[14] = tested on: common purslane (Portulaca oleracea); experiment: Test E pre-/postemergence/post directed; parameters: key: 0 is no effect; 100 is complete control
Method in brief: as §1

[15] = tested on: common ragweed (Ambrosia elatior); experiment: Test E pre-/postemergence/post directed; parameters: key: 0 is no effect; 100 is complete control; conditions: PREEMERGENCE
Method in brief: as §1

[16] = tested on: dallisgrass (Paspalum dilatatum); experiment: Test E pre-/postemergence/post directed; parameters: key: 0 is no effect; 100 is complete control
Method in brief: as §1

[17] = tested on: guineagrass (Panicum maximum); experiment: Test E pre-/postemergence/post directed; parameters: key: 0 is no effect; 100 is complete control
Method in brief: as §1

[18] = tested on: large crabgrass (Digitaria sanguinalis); experiment: Test E pre-/postemergence/post directed; parameters: key: 0 is no effect; 100 is complete control; conditions: PREEMERGENCE
Method in brief: as §1

[19] = tested on: sourgrass (Trichachne insularis); experiment: Test E pre-/postemergence/post directed; parameters: key: 0 is no effect; 100 is complete control
Method in brief: as §1

[20] = tested on: tall mallow (Malva sylvestris); experiment: Test E pre-/postemergence/post directed; parameters: key: 0 is no effect; 100 is complete control; conditions: PREEMERGENCE
Method in brief: as §1

Cc1cnc(-c2ccc(C(F)(F)F)cc2)nc1Cn1ccc(C(F)(F)F)n1 [compound 9]
Plant response rating, Barnyardgrass ([1]; POSTEMERGENCE, Rate 35 g/ha): 10
Plant response rating, Barnyardgrass ([1]; POSTEMERGENCE, Rate 70 g/ha): 25
Plant response rating, Barnyardgrass ([1]; POSTEMERGENCE, Rate 140 g/ha): 25
Plant response rating, Barnyardgrass ([1]; PREEMERGENCE, Rate 35 g/ha): 10
Plant response rating, Barnyardgrass ([1]; PREEMERGENCE, Rate 70 g/ha): 50
Plant response rating, Barnyardgrass ([1]; PREEMERGENCE, Rate 140 g/ha): 50
Plant response rating, Cotton ([2]; POSTEMERGENCE, Rate 35 g/ha): 70
Plant response rating, Cotton ([2]; POSTEMERGENCE, Rate 70 g/ha): 80
Plant response rating, Cotton ([2]; POSTEMERGENCE, Rate 140 g/ha): 90
Plant response rating, Cotton ([2]; PREEMERGENCE, Rate 35 g/ha): 10
Plant response rating, Cotton ([2]; PREEMERGENCE, Rate 70 g/ha): 35
Plant response rating, Cotton ([2]; PREEMERGENCE, Rate 140 g/ha): 50
Plant response rating, Ladysthumb ([3]; POSTEMERGENCE, Rate 35 g/ha): 20
Plant response rating, Ladysthumb ([3]; POSTEMERGENCE, Rate 70 g/ha): 30
Plant response rating, Ladysthumb ([3]; POSTEMERGENCE, Rate 140 g/ha): 30
Plant response rating, Ladysthumb ([3]; PREEMERGENCE, Rate 35 g/ha): 35
Plant response rating, Ladysthumb ([3]; PREEMERGENCE, Rate 70 g/ha): 85
Plant response rating, Ladysthumb ([3]; PREEMERGENCE, Rate 140 g/ha): 90
Plant response rating, Spanishneedles ([4]; POSTEMERGENCE, Rate 125 g/ha): 10
Plant response rating, Spanishneedles ([4]; POSTEMERGENCE, Rate 250 g/ha): 15
Plant response rating, Spanishneedles ([4]; PREEMERGENCE, Rate 64 g/ha): 20
Plant response rating, Spanishneedles ([4]; PREEMERGENCE, Rate 125 g/ha): 30
Plant response rating, Spanishneedles ([4]; PREEMERGENCE, Rate 250 g/ha): 60
Plant response rating, Bermudagrass ([5]; POSTEMERGENCE, Rate 125 g/ha): 10
Plant response rating, Bermudagrass ([5]; POSTEMERGENCE, Rate 250 g/ha): 10
Plant response rating, Bermudagrass ([5]; PREEMERGENCE, Rate 32 g/ha): 70
Plant response rating, Bermudagrass ([5]; PREEMERGENCE, Rate 64 g/ha): 98
Plant response rating, Com. ragweed ([6]; POSTEMERGENCE, Rate 125 g/ha): 10
Plant response rating, Com. ragweed ([6]; POSTEMERGENCE, Rate 250 g/ha): 10
Plant response rating, Com. ragweed ([6]; PREEMERGENCE, Rate 32 g/ha): 10
Plant response rating, Com. ragweed ([6]; PREEMERGENCE, Rate 125 g/ha): 98
Plant response rating, Itchgrass ([7]; POSTEMERGENCE, Rate 125 g/ha): 30
Plant response rating, Itchgrass ([7]; POSTEMERGENCE, Rate 250 g/ha): 30
Plant response rating, Itchgrass ([7]; PREEMERGENCE, Rate 64 g/ha): 85
Plant response rating, Johnsongrass ([8]; POSTEMERGENCE, Rate 125 g/ha): 85
Plant response rating, Johnsongrass ([8]; POSTEMERGENCE, Rate 250 g/ha): 85
Plant response rating, Johnsongrass ([8]; PREEMERGENCE, Rate 32 g/ha): 55
Plant response rating, Johnsongrass ([8]; PREEMERGENCE, Rate 64 g/ha): 75
Plant response rating, Johnsongrass ([8]; PREEMERGENCE, Rate 125 g/ha): 85
Plant response rating, Johnsongrass ([8]; PREEMERGENCE, Rate 250 g/ha): 90
Plant response rating, Large crabgrass ([9]; POSTEMERGENCE, Rate 125 g/ha): 5
Plant response rating, Large crabgrass ([9]; POSTEMERGENCE, Rate 250 g/ha): 10
Plant response rating, Large crabgrass ([9]; PREEMERGENCE, Rate 32 g/ha): 70
Plant response rating, P. morninglory ([10]; POSTEMERGENCE, Rate 125 g/ha): 40
Plant response rating, P. morninglory ([10]; POSTEMERGENCE, Rate 250 g/ha): 50
Plant response rating, P. morninglory ([10]; PREEMERGENCE, Rate 32 g/ha): 45
Plant response rating, P. morninglory ([10]; PREEMERGENCE, Rate 64 g/ha): 60
Plant response rating, P. morninglory ([10]; PREEMERGENCE, Rate 125 g/ha): 75
Plant response rating, Sandbur ([11]; Rate 125 g/ha): 10
Plant response rating, Sandbur ([11]; Rate 250 g/ha): 20
Plant response rating, Bermudagrass ([12]; Rate 125 g/ha): 100
Plant response rating, Bermudagrass ([12]; Rate 250 g/ha): 100
Plant response rating, Com. groundsel ([13]; Rate 64 g/ha): 100
Plant response rating, Com. groundsel ([13]; Rate 125 g/ha): 100
Plant response rating, Com. groundsel ([13]; Rate 250 g/ha): 100
Plant response rating, Com. purslane ([14]; POSTEMERGENCE, Rate 125 g/ha): 80
Plant response rating, Com. purslane ([14]; POSTEMERGENCE, Rate 250 g/ha): 80
Plant response rating, Com. purslane ([14]; PREEMERGENCE, Rate 32 g/ha): 100
Plant response rating, Com. purslane ([14]; PREEMERGENCE, Rate 64 g/ha): 100
Plant response rating, Com. purslane ([14]; PREEMERGENCE, Rate 125 g/ha): 100
Plant response rating, Com. purslane ([14]; PREEMERGENCE, Rate 250 g/ha): 100
Plant response rating, Com. ragweed ([15]; Rate 64 g/ha): 100
Plant response rating, Com. ragweed ([15]; Rate 250 g/ha): 100
Plant response rating, Dallisgrass ([16]; POSTEMERGENCE, Rate 125 g/ha): 10
Plant response rating, Dallisgrass ([16]; POSTEMERGENCE, Rate 250 g/ha): 20
Plant response rating, Dallisgrass ([16]; PREEMERGENCE, Rate 32 g/ha): 85
Plant response rating, Dallisgrass ([16]; PREEMERGENCE, Rate 64 g/ha): 100
Plant response rating, Dallisgrass ([16]; PREEMERGENCE, Rate 125 g/ha): 100
Plant response rating, Dallisgrass ([16]; PREEMERGENCE, Rate 250 g/ha): 100
Plant response rating, Guineagrass ([17]; POSTEMERGENCE, Rate 125 g/ha): 35
Plant response rating, Guineagrass ([17]; POSTEMERGENCE, Rate 250 g/ha): 35
Plant response rating, Guineagrass ([17]; PREEMERGENCE, Rate 32 g/ha): 20
Plant response rating, Guineagrass ([17]; PREEMERGENCE, Rate 64 g/ha): 85
Plant response rating, Guineagrass ([17]; PREEMERGENCE, Rate 125 g/ha): 90
Plant response rating, Guineagrass ([17]; PREEMERGENCE, Rate 250 g/ha): 100
Plant response rating, Large crabgrass ([18]; Rate 64 g/ha): 100
Plant response rating, Large crabgrass ([18]; Rate 125 g/ha): 100
Plant response rating, Large crabgrass ([18]; Rate 250 g/ha): 100
Plant response rating, Sourgrass ([19]; POSTEMERGENCE, Rate 125 g/ha): 10
Plant response rating, Sourgrass ([19]; POSTEMERGENCE, Rate 250 g/ha): 30
Plant response rating, Sourgrass ([19]; PREEMERGENCE, Rate 32 g/ha): 85
Plant response rating, Sourgrass ([19]; PREEMERGENCE, Rate 64 g/ha): 100
Plant response rating, Sourgrass ([19]; PREEMERGENCE, Rate 125 g/ha): 100
Plant response rating, Sourgrass ([19]; PREEMERGENCE, Rate 250 g/ha): 100
Plant response rating, Tall Mallow ([20]; Rate 32 g/ha): 100
Plant response rating, Tall Mallow ([20]; Rate 64 g/ha): 100
Plant response rating, Tall Mallow ([20]; Rate 125 g/ha): 100
Plant response rating, Tall Mallow ([20]; Rate 250 g/ha): 100
